Experimental data as given in patent US11129820B2, “Ferroportin-inhibitor salts” (Vifor (International) AG, priority 2017, dated 2021).
In brackets after ≈: the same amount, converted by molar mass.

Assays:
ferroportin (Fpn) = target: T1, ferroportin (Fpn) (Mus musculus, UniProt Q9JHI9); assay: Ferroportin Ubiquitination and Degradation (J774, immunoprecipitation, Western blot); format: cell-based; parameters: key: +: comparable to hepcidin; −: no effect; +/−: intermediate effect; details: J774 cells, ca. 10-fold IC50 concentration, visual inspection of Western blots
T1 construct: endogenous in cells; host or cells: J774 mouse macrophage cell line (DSMZ, Cat. ACC170), induced with 200 uM Fe(III)-NTA
T1 sequence (Q9JHI9 1-570): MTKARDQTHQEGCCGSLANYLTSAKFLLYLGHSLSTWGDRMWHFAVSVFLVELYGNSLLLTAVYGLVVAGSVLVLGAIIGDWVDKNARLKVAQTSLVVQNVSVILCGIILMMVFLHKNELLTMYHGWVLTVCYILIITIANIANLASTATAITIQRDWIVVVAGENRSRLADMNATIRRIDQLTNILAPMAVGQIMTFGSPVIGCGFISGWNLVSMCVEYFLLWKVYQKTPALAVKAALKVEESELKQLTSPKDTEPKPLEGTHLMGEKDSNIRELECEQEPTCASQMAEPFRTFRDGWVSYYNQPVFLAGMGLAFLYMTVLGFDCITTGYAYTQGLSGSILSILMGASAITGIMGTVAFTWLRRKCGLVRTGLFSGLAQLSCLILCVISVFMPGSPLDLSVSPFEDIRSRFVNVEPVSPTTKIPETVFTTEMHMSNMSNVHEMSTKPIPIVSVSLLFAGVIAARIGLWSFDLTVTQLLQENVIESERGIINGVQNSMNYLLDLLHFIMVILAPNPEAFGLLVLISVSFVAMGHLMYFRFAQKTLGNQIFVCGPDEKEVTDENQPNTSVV
Experimental: Exposure of cells expressing ferroportin (Fpn) to hepcidin is known to trigger ubiquitination and subsequent internalization and degradation of Fpn (Qiao, 2012). The potential of Fpn inhibitors to induce Fpn ubiquitination and degradation is investigated with an immunoprecipitation assay using the J774 mouse macrophage cell line which expresses Fpn upon treatment with iron.
Cells are incubated with synthetic human hepcidin (Bachem, Cat. H-5926) or Fpn inhibitor compounds for 10 min or 120 min. Cells are washed and lysed with ice-cold lysis buffer (Pierce, Life Technoligies, Cat. 87787) including 1×HALT protease inhibitor cocktail (Life technologies, Cat. 78429) and 10 mM iodoacetamide (Sigma, Cat. 16125) to stabilize ubiquitinated proteins. Immunoprecipitation is done using the Pierce Classic IP Kit (Life Technologies, Cat. 26146) following the manufacturer's protocol. Briefly, 2 mg protein in 1.25 ml IP lysis buffer is incubated by mixing for 1 h at 4° C. with control agarose beads to pre-clear the lysate and reduce nonspecific signal. Unbound lysate is then incubated overnight with 12 μg per reaction of the affinity purified anti-Fpn antibody F308 that was raised against a GST fusion protein of mouse Fpn amino acids 224-308. Immune complexes are captured by pipetting 14 μl settled Pierce Protein A/G Plus Agarose beads (Life Technologies, Cat. 20423) per reaction and the slurry is incubated for 1.5 h at 4° C. with gentle end-over-end mixing. The beads are washed and immune complexes are eluted directly with 75 μl SDS NuPAGE LDS sample buffer (Life Technologies, Cat. NP0007) containing DTT (Life Technologies, Cat. NP0009).
After immunoprecipitation samples are analyzed by Western blotting using a rabbit anti-mouse MTP1 antiserum (Alpha Diagnostic International, Cat. MTP11-A) and a mouse anti-mono- and polyubiquitinylated conjugates monoclonal antibody (Enzo Lifesciences, Cat. BML-PW8810) for detection of ferroportin and ubiquitin, respectively. Mouse monoclonal anti-rabbit IgG light chain (Abcam, Cat. ab99697) and anti-mouse IgG H&L (Abcam, Cat. ab6789) HRP conjugates are used as secondary antibodies.

naïve WT C57BL/6 mice = assay: Hypoferremia in naïve mice; format: in vivo, mouse; details: injection in WT naïve mice, maximal effect at 3-4 hours post treatment
Experimental: Injection of synthetic hepcidin in wild-type (WT) naïve mice results in a reduction of serum iron levels (40-50% from the vehicle control) with a maximal effect at 3-4 hours post treatment (Rivera, 2005; FIG. 12A).
Female C57BL/6 mice (Janvier, France) at age of 9 weeks are fed a standard diet (Harlan Provimi Kliba 3436) and treated per os (p.o.) with compounds or the corresponding amount of vehicle at a volume of 10 ml/kg body weight. Fpn inhibitors are formulated in 0.5% methylcellulose/water or 20% cremophor EL/water and dosed p.o. in mice at 10, 30 or 100 mg/kg body weight. Three hours later, mice are pre-terminally anesthetized in isoflurane chambers and blood is collected by retro-orbital bleeding. Mice are sacrificed by cervical dislocation and spleens, livers and duodena were harvested and used for biomarker analysis. All experiments are conducted in compliance with the license approved by the responsible veterinarian authorities. Serum is isolated by centrifugation of blood into gel-containing microtainers and serum iron is determined by the MULTIGENT Iron assay (Abbott Diagnostics, 6K95). Eight mice per group are used and one-way ANOVA with Bonferroni's multiple comparison test is performed to analyze the statistical differences between the experimental groups.
Table 6 Efficacy of Fpn inhibitors tested in the naïve mouse hypoferremia model. Serum iron reduction induced by selected ferroportin inhibitors dosed p.o. in naïve WT C57BL/6 mice at 10, 30 and 100 mg/kg. Relative serum iron reduction at 3 h after dosing was calculated by subtracting the average of serum iron values of animals dosed with the Fpn inhibitor from that of vehicle-treated animals. The difference in average serum iron values between vehicle and compound treated groups was then divided by the average of serum iron of the vehicle control group and listed as percentage.

[1] = system: beta2-microglobulin deficient (b2m−/−) mice; assay: Correction of hyperferremia in beta2-microglobulin deficient mice; format: in vivo, mouse; details: for Serum Iron Reduction (%): 60 mg/kg oral, 3 hours (##)
Experimental: Female and male homozygous b2m−/− mice are supplied from Jackson Laboratories (B6.129P2-B2mtm1Unc/J, Stock Number: 002087) at age of 6 to 7 weeks and fed standard diet (Harlan Provimi Kliba 3436) ad libitum. Age and gender matched WT C57BL/6 mice are supplied by Charles River. To study the acute effects of ferroportin (Fpn) inhibitors in iron overload b2m−/− mice are treated with compounds or the corresponding amount of vehicle at a volume of 10 ml/kg body weight. Fpn inhibitor compounds are formulated in 0.5% methylcellulose/water or 20% cremophor EL/water and dosed p.o. in mice at 50 mg/kg body weight. WT controls received only vehicle. Three hours later, mice are pre-terminally anesthetized in isoflurane chambers and blood is collected by retro-orbital bleeding. Mice are sacrificed by cervical dislocation and spleens, livers and duodena are harvested and used for biomarker analysis. All experiments are performed in compliance with license approved by the responsible veterinarian authorities. Serum is isolated by centrifugation of blood into gel-containing microtainers (BD Biosciences) and serum iron is determined by the MULTIGENT Iron assay (Abbott Diagnostics, Cat. 6K95). Four to nine mice per group are used and one-way ANOVA with Bonferroni's multiple comparison test is applied to analyze the statistical differences between the experimental groups.
Blood is collected 1 (#) or 3 (##) hours after oral administration of the indicated doses of Fpn inhibitors to beta2-microglobulin deficient mice and serum iron concentrations are measured. Relative reduction (%) of serum iron levels are shown, which were calculated by subtracting the average of serum iron values of animals dosed with the Fpn inhibitor from that of vehicle-treated animals. The difference in average serum iron values between vehicle and compound treated groups was then divided by the average of serum iron of the vehicle control group and listed as percentage. Values are listed separately for female (♀) and male (♂) animals, because a marked sex-dependent difference in efficacy was noted. Statistically significant (2-way ANOVA with Bonferroni post test) differences observed between compound-treated and vehicle-treated groups are indicated (*** p<0.001; ** p<0.01, p<0.05).

Hbb th3/+ mice = assay: Mouse model of β-thalassemia intermedia (Hbb th3/+ mice); format: in vivo; details: for Decrease in RDW by 20/60 mg/kg compound / Decrease in serum iron by 20/60 mg/kg compound: % change to vehicle; for Correction of anemia at day 20-48 by 20/60 mg/kg: hemoglobin difference to vehicle; for Decrease in serum iron by 20/60 mg/kg compound: dosed for 3 h
Experimental: The efficacy of Fpn inhibitors is investigated using a mouse model of transfusion-independent β-thalassemia. Mice with heterozygous deletion of β 1 and β 2 globin genes (called Hbb th3/+ mice) develop transfusion-independent anemia, ineffective erythropoiesis, splenomegaly and secondary iron overload in spleen, liver and kidneys. […] Hbb th3/+ mice are dosed twice daily with either compound at 20 or 60 mg/kg or with methylcellulose (10 ml/kg, Sigma, Cat. 274429) as a vehicle. Between both doses mice have access to drinking water supplemented with 1 mM ^58Fe(II)-sulfate (Vifor Pharma, Batch No. ROR 3096) and 10 mM ascorbic acid (Sigma, Cat. 795437) for 6 h. The concentration of ^58Fe(II)-Sulfate supplied in the drinking water is adjusted to substitute for intake of standard rodent diet with iron content of 250 ppm. Water without ^58Fe(II)-Sulfate and ascorbic acid is provided during the remaining 18 h. Dosing of Fpn inhibitors or vehicle followed by exposure to iron-containing water is repeated for 20 to 46 days in individual experiments.
Additional hematologic parameters are measured in terminal blood using automated blood cell analyzer.
The inefficient erythropoiesis of Hbb th3/+ mice causes excessive proliferation of erythroid precursors in spleen, leading to splenomegaly.
Elevated erythropoietin levels in Hbb th3/+ mice induce overexpression of erythroferrone, an erythroid regulator hormone known to suppress hepcidin (Kautz L. et al, Nat. Genet., 2014). […] Erythroferrone is produced by erythrocyte precursors proliferating massively in spleens of Hbb th3/+ mice as a consequence of extramedullar erythropoiesis.
Increased iron demand due to inefficient erythropoiesis and chronically low hepcidin levels in patients with thalassemia causes organ iron loading and associated morbidities, such as hepatocellular carcinoma and heart failure (Rivella S. Haematologica, 2015). Hbb th3/+ mice absorb excessive amounts of iron as a consequence of inadequately low hepcidin levels relative to the high iron content in liver, spleen and kidney and increased ferroportin expression in duodenum (Gardenghi S., Blood, 2007).
Additionally, reactive oxygen species (ROS) are detected in bone marrow cells using a fluorescent indicator, CM-H2DCFDA (Thermo Fisher Scientific, Cat. C6827).
Data are expressed as difference to the vehicle control group for hemoglobin and as % change to the vehicle control group for all other parameter shown

[2] = Approximate solubility of the starting compound in solvents and solvent mixtures; format: physicochemical; details: thermodynamic from solid
Experimental: Approximate solubilities were determined by incremental addition of solvent to about 10 mg the compound. […] Due to the experimental error inherent in this method, the solubility values are intended to be regarded as rough estimates and are to be used solely for the design of crystallization experiments.
Approximate solubilities were determined by incremental addition of solvent to about 10 mg of the compound. […] Due to the experimental error inherent in this method, the solubility values were regarded as rough estimates and were only used for the design of crystallization experiments.
The approximate solubility of SP236-FB-P1 was determined in a number of different solvents and solvent mixtures to help guide the salt/co-crystal experiments.

## CC[C@H](C)[C@@H]1NC(=O)[C@@H](NC(=O)[C@@H](NC(=O)[C@@H]2CCCN2C(=O)[C@H](Cc2ccccc2)NC(=O)[C@H](Cc2c[nH]cn2)NC(=O)[C@@H](NC(=O)[C@@H](N)CC(=O)O)[C@@H](C)O)[C@@H](C)CC)CSSC[C@@H](C(=O)N[C@@H](CCCCN)C(=O)N[C@H](C(=O)O)[C@@H](C)O)NC(=O)[C@@H]2CSSC[C@@H]3NC(=O)[C@@H]4CSSC[C@H](NC(=O)[C@H](Cc5ccccc5)NC1=O)C(=O)N[C@@H](CSSC[C@H](NC(=O)[C@H](CCCCN)NC(=O)[C@H](CO)NC(=O)[C@H](CCCNC(=N)N)NC(=O)[C@H](Cc1c[nH]cn1)NC3=O)C(=O)NCC(=O)N[C@@H](CCSC)C(=O)N2)C(=O)NCC(=O)N4 [hepcidin, reference compound]
Ferroportin (Fpn)
  Fpn Degradation (120 min.): +
  Fpn Ubiquitination (10 min.): +
naïve WT C57BL/6 mice
  Reduction of serum iron levels from the vehicle control: 40-50%

## O=C(NCc1ncccc1F)c1csc(CCNCCc2nc3ccccc3[nH]2)n1 [Example Compound No. 94]
[1]; b2m−/− mice, 50 mg/kg p.o., 3 h
  Correction of elevated serum iron, in words: corrected the elevated serum iron to the levels observed in WT controls
[1]; female ♀
  Serum Iron Reduction (%): 47%
[1]; male ♂
  Serum Iron Reduction (%): 67%

## O=C(NCc1ncccc1F)c1coc(CCNCc2nc3ccccc3[nH]2)n1 [Example Compound No. 126]
Ferroportin (Fpn)
  Fpn Degradation (120 min.): +
  Fpn Ubiquitination (10 min.): +/−

## O=C(NCc1ncccc1F)c1coc(CCNCCc2nc3ccccc3[nH]2)n1 [Example Compound No. 127]
Hbb th3/+ mice; 20 mg/kg twice daily for 20-46 days
  Decrease in RDW by 20/60 mg/kg compound: 19%
Hbb th3/+ mice; 20 mg/kg twice daily
  Correction of anemia at day 20-48 by 20/60 mg/kg: 12 g/L
Hbb th3/+ mice; 20 mg/kg
  Decrease in serum iron by 20/60 mg/kg compound: 68%
Hbb th3/+ mice; 60 mg/kg twice daily for 20-46 days
  Decrease in RDW by 20/60 mg/kg compound: 25%
Hbb th3/+ mice; 60 mg/kg twice daily
  Correction of anemia at day 20-48 by 20/60 mg/kg: 20 g/L
Hbb th3/+ mice; 60 mg/kg
  Decrease in serum iron by 20/60 mg/kg compound: 81%

## O=C(NCc1ncccc1F)c1coc(CCNCCc2nc3ccccc3[nH]2)n1 [SP236-FB-P1]
[2]; aqueous with cosolvent or surfactant or cyclodextrin, 2-propanol-water 1:3
  solubility: 39 to 47 mg/mL (≈ 95.5 to 115 mM)
[2]; aqueous with cosolvent or surfactant or cyclodextrin, Methanol-water 1:1
  solubility: > 100 mg/mL
[2]; organic solvent or mixture, 2-Propanol
  solubility: 80 to 120 mg/mL (≈ 196 to 294 mM)
[2]; organic solvent or mixture, Acetonitrile
  solubility: > 200 mg/mL
[2]; organic solvent or mixture, DMSO
  solubility: > 100 mg/mL
[2]; organic solvent or mixture, Dioxane
  solubility: > 100 mg/mL
[2]; organic solvent or mixture, Ethanol
  solubility: > 100 mg/mL
[2]; organic solvent or mixture, Ethyl acetate
  solubility: > 100 mg/mL
[2]; organic solvent or mixture, Ethyl acetate-cyclohexane 3:1
  solubility: 5 to 7 mg/mL (≈ 12.2 to 17.1 mM)
[2]; organic solvent or mixture, Heptane
  solubility: < 1 mg/mL
[2]; organic solvent or mixture, Methanol
  solubility: > 200 mg/mL
[2]; organic solvent or mixture, THF
  solubility: > 200 mg/mL
[2]; organic solvent or mixture, THF-heptane 3:1
  solubility: > 200 mg/mL
[2]; Water
  solubility: ~15 mg/mL (≈ 36.7 mM)
